≈ marks a conversion by molar mass, not a printed value. Blank lines part the entries; values can stand above or below the molecule they belong to.
Tests used:
Hepatitis C virus [1] = experiment: Antiviral activity against Hepatitis C virus Con1 genotype 1b infected in human HuH7 cells after 3 days by FRET assay in presence of 40% human serum; format: functional, organism-based, Hepacivirus hominis; details: isolate Con1, Huh-7, 72 h
[2] = Clearance in rat at 5 mg/kg, iv and 10 mg/kg, po; format: ADME, organism-based; details: in vivo
[3] = Plasma concentration in rat at 10 mg/kg, po after 6 hrs; format: ADME, organism-based; parameters: dose 10 mg/kg, route oral
Cytochrome P450 2C9 = Cytochrome P450 2C9 (Homo sapiens, UniProt P11712); experiment: Inhibition of CYP2C9 in human liver microsomes after 30 mins in presence of NADPH; format: ADME
Cytochrome P450 2C9, sequence (P11712 whole entry): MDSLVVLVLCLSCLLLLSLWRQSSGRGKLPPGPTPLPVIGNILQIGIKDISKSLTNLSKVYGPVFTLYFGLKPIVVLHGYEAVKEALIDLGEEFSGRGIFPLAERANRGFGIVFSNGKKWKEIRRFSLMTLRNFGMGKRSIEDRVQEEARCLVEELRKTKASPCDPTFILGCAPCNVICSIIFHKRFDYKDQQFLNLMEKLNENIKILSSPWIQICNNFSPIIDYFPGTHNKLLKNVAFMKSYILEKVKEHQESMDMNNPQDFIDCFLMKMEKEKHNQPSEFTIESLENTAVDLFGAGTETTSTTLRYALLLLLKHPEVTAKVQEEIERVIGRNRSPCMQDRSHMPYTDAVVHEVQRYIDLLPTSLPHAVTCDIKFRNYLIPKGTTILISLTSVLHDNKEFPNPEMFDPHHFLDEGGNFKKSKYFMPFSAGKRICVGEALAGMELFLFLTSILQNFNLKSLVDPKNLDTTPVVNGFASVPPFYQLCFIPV

[4] = Plasma concentration in rat at 5 mg/kg, iv after 6 hrs; format: ADME, organism-based; parameters: dose 5 mg/kg, route intravenous
[5] = Permeability of the compound at pH 7.4 by PAMPA; format: physicochemical; details: read-out: permeability
Cytochrome P450 2C19 = Cytochrome P450 2C19 (Homo sapiens, UniProt P33261); experiment: Inhibition of CYP2C19 in human liver microsomes after 30 mins in presence of NADPH; format: ADME
Cytochrome P450 2C19, sequence (P33261 whole entry): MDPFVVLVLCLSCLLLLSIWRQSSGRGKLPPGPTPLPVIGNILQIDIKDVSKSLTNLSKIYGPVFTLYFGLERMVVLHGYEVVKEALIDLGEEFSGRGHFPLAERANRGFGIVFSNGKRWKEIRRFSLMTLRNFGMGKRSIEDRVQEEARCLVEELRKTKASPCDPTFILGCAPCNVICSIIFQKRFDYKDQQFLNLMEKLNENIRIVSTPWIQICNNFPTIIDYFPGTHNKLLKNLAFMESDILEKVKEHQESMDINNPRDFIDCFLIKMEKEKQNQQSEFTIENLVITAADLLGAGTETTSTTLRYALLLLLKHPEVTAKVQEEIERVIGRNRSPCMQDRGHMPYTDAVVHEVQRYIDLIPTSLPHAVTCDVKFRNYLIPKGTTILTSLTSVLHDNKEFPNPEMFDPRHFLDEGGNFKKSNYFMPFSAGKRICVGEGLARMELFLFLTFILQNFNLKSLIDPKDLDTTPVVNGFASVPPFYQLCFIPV

[6] = molecular target: Voltage-gated inwardly rectifying potassium channel KCNH2 (Homo sapiens, UniProt Q12809); experiment: Inhibition of human ERG by fluorescence-based thallium flux assay
Voltage-gated inwardly rectifying potassium channel KCNH2, sequence (Q12809 whole entry): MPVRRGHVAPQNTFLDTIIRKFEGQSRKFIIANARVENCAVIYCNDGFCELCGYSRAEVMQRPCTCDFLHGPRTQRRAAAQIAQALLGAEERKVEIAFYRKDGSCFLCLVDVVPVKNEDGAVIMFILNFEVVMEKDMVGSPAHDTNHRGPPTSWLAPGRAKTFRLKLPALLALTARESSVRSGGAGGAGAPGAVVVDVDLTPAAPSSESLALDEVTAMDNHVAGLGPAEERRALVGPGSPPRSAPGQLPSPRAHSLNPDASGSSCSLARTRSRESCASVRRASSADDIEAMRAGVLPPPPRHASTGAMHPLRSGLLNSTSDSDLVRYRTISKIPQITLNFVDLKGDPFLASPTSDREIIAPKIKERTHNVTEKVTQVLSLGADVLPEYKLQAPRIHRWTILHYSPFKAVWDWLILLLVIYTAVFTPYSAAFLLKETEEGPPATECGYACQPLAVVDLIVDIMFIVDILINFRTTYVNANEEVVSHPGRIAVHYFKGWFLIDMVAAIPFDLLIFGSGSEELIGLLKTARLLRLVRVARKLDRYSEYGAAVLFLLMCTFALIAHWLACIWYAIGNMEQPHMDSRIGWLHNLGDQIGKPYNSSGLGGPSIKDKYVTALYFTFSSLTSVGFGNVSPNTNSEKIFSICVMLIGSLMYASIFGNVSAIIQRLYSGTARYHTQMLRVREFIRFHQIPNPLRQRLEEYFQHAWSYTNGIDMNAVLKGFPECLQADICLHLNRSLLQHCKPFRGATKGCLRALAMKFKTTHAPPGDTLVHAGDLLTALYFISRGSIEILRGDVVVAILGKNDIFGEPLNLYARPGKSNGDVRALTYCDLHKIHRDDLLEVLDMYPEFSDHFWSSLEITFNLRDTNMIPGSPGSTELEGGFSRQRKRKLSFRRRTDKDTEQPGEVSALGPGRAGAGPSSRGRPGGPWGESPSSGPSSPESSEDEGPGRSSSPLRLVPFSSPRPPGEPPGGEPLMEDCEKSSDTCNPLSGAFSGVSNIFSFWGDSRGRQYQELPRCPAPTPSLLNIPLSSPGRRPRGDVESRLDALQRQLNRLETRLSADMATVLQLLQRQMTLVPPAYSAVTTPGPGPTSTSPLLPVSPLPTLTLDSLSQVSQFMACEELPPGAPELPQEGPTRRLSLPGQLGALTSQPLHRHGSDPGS

HepG2 = experiment: Cytotoxicity against human HepG2 cells; format: cell-based
[7] = molecular target: T1, Nuclear receptor subfamily 1 group I member 2 (Homo sapiens, UniProt O75469); experiment: Transactivation of human PXR expressed in human HepG2 cells by luciferase reporter gene assay; format: cell-based
T1 sequence (O75469 whole entry): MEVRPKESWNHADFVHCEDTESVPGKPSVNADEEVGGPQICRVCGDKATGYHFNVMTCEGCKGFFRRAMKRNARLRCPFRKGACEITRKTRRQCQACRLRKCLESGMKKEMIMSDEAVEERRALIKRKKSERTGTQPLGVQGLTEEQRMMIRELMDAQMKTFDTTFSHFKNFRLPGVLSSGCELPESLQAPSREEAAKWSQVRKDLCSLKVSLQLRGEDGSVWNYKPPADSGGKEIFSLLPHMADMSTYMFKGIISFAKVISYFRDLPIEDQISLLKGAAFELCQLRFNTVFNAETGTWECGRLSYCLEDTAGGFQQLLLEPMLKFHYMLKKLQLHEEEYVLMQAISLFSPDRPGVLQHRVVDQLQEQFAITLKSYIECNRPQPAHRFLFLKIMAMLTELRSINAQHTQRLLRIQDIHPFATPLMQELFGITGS

Liver microsome [8] = details: rat, microsomes
Cytochrome P450 3A4 = Cytochrome P450 3A4 (Homo sapiens, UniProt P08684); experiment: Inhibition of CYP3A4 in human liver microsomes using benzyloxyresorufin as substrate after 30 mins in presence of NADPH; format: ADME
Cytochrome P450 3A4, sequence (P08684 whole entry): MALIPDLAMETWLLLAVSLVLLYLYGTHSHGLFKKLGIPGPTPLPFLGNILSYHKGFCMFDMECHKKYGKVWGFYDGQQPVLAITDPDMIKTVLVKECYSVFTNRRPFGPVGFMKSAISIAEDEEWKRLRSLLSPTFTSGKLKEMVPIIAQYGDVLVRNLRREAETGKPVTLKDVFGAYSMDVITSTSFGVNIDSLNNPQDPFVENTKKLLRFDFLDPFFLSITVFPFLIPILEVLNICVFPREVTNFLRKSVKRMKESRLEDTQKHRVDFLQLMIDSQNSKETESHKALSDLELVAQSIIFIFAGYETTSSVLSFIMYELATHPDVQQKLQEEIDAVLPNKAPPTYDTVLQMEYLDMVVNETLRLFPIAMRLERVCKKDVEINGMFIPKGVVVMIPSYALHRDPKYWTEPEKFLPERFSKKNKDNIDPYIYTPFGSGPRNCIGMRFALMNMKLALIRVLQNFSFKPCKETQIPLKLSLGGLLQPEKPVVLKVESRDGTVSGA

Liver microsome [9] = details: human, microsomes
Hepatitis C virus [10] = experiment: Antiviral activity against Hepatitis C virus Con1 genotype 1b infected in human HuH7 cells after 3 days by FRET assay; format: functional, organism-based, Hepacivirus hominis; details: isolate Con1, Huh-7, 72 h
[11] = Solubility of the compound in amorphous form in phosphate buffer at pH 6.5; format: physicochemical
[12] = molecular target: Sodium channel protein type 5 subunit alpha (Homo sapiens, UniProt Q14524); experiment: Inhibition of human NaV1.5 expressed in HEK293 cells by fluorescence-based thallium flux assay; format: cell-based
Sodium channel protein type 5 subunit alpha, sequence (Q14524 whole entry): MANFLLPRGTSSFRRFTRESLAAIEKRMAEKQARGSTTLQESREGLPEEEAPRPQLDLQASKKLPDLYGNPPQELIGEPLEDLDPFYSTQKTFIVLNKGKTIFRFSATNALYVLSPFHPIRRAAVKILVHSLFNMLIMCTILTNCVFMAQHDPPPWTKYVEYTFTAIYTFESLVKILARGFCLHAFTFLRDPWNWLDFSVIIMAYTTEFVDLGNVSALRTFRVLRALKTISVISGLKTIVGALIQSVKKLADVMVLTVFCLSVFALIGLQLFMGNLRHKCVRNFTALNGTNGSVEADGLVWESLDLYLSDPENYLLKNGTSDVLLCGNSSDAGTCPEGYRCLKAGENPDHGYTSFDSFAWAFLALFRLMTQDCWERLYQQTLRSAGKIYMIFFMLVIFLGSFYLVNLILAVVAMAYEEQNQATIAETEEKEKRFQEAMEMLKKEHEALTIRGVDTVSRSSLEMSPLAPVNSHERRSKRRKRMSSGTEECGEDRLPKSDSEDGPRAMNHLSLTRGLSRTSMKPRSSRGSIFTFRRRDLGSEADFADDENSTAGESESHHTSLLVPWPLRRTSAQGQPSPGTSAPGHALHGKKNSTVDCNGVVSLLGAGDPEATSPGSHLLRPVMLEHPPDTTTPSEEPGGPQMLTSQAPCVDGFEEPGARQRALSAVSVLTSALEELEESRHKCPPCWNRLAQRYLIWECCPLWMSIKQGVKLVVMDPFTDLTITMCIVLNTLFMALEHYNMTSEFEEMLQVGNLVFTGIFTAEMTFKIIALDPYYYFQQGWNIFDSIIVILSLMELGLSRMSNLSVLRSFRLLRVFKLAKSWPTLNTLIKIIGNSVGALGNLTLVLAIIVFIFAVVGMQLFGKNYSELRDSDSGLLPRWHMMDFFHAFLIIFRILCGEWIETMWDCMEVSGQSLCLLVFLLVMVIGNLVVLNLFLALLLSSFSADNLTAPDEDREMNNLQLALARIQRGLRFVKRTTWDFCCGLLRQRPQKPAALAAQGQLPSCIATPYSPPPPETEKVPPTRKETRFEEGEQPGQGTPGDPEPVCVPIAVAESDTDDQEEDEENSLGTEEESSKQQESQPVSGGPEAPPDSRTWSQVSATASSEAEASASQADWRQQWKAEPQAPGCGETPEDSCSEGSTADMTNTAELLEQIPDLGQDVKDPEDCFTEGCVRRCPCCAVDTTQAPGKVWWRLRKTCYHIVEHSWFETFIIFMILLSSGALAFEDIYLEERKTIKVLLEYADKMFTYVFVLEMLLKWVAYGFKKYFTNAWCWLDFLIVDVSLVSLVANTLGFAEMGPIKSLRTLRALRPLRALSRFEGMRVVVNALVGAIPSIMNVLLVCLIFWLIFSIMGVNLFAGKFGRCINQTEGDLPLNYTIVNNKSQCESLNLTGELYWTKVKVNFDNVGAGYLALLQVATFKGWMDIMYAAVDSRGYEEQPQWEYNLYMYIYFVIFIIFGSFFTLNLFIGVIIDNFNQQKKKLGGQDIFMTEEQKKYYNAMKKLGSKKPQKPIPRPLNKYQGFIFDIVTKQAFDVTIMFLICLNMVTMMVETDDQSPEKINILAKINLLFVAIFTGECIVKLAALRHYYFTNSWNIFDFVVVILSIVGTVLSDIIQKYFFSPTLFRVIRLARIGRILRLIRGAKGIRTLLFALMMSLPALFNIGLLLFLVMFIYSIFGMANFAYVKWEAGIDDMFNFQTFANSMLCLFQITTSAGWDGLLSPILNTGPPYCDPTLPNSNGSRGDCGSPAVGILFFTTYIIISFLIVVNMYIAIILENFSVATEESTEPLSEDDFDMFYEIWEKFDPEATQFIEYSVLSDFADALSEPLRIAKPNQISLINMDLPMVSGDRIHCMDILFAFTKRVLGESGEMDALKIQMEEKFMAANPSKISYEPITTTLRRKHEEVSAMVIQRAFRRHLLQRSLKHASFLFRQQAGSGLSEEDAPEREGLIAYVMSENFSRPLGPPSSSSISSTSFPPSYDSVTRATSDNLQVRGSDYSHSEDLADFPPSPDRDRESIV

Cytochrome P450 2D6 = Cytochrome P450 2D6 (Homo sapiens, UniProt P10635); experiment: Inhibition of CYP2D6 in human liver microsomes after 30 mins in presence of NADPH; format: ADME
[13] = Cytotoxicity against human HuH7 cells by Alamar blue assay; format: cell-based; details: Huh-7 cells
Cytochrome P450 1A2 = molecular target: T2, Cytochrome P450 1A2 (Homo sapiens, UniProt P05177); experiment: Inhibition of CYP1A2 in human liver microsomes after 30 mins in presence of NADPH; format: ADME
T2 sequence (P05177 whole entry): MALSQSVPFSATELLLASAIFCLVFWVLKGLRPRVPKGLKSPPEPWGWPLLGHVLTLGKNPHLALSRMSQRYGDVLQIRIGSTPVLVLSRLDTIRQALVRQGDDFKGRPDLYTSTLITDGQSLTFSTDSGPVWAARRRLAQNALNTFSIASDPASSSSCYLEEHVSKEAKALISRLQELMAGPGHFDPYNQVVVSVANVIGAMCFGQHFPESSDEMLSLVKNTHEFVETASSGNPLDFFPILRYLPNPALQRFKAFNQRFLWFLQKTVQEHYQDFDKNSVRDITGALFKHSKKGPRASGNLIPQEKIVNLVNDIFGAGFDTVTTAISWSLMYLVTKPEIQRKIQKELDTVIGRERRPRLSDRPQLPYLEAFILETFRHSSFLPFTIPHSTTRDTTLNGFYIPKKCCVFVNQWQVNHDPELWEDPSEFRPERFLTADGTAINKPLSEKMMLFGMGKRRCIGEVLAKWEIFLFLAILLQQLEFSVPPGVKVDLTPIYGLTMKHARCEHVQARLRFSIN

[14] = Drug uptake in rat liver at 5 mg/kg, iv after 6 hrs; format: ADME, organism-based; parameters: dose 5 mg/kg, route intravenous; details: read-out: Drug uptake
Hepatitis C virus [15] = experiment: Antiviral activity against Hepatitis C virus H77c genotype 1a infected in human HuH7 cells after 3 days by FRET assay; format: functional, organism-based, Hepacivirus hominis; details: genotype 1a H77, Huh-7, 72 h
[16] = AUC (0 to 6 hrs) in rat at 5 mg/kg, iv; format: ADME, organism-based; parameters: time < 6 hr, dose 5 mg/kg, route intravenous; details: plasma
[17] = Drug uptake in rat liver at 10 mg/kg, po after 6 hrs; format: ADME, organism-based; parameters: dose 10 mg/kg, route oral; details: read-out: Drug uptake
[18] = AUC (0 to 6 hrs) in rat at 10 mg/kg, po; format: ADME, organism-based; parameters: time < 6 hr, dose 10 mg/kg, route oral; details: plasma
[19] = Plasma concentration in rat at 10 mg/kg, po after 4 hrs; format: ADME, organism-based; parameters: dose 10 mg/kg, route oral
[20] = Ratio of drug level in liver to plasma in rat at 5 mg/kg, iv after 4 hrs; format: ADME, organism-based; parameters: dose 5 mg/kg, route intravenous
[21] = Plasma concentration in rat at 5 mg/kg, iv after 4 hrs; format: ADME, organism-based; parameters: dose 5 mg/kg, route intravenous
[22] = Drug uptake in rat liver at 10 mg/kg, po after 4 hrs; format: ADME, organism-based; parameters: dose 10 mg/kg, route oral; details: read-out: Drug uptake
[23] = AUC (0 to 4 hrs) in rat at 10 mg/kg, po; format: ADME, organism-based; parameters: time < 4 hr, dose 10 mg/kg, route oral; details: plasma
[24] = Drug uptake in rat liver at 5 mg/kg, iv after 4 hrs; format: ADME, organism-based; parameters: dose 5 mg/kg, route intravenous; details: read-out: Drug uptake
[25] = AUC (0 to 4 hrs) in rat at 5 mg/kg, iv; format: ADME, organism-based; parameters: time < 4 hr, dose 5 mg/kg, route intravenous; details: plasma
[26] = Plasma clearance in rat at 5 mg/kg, iv; format: ADME, organism-based; parameters: dose 5 mg/kg, route intravenous

EC50 (Hepatitis C virus [1]): 0.028 µM
clearance [2]: 9 mL/min/kg
concentration at 6 h [3]: 440 nM
EC50 (Cytochrome P450 2C9): > 40 µM
concentration at 6 h [4]: 409 nM
Papp [5]: 43 ×10⁻⁶ cm/s
EC50 (Cytochrome P450 2C19): > 40 µM
EC50 [7]: > 50 µM
Stability (Liver microsome [8]): 98%
EC50 (Cytochrome P450 3A4): 14 µM
Stability (Liver microsome [9]): 98%
EC50 (Hepatitis C virus [10]): 0.005 µM
solubility [11]: 760 µg/mL (≈ 1180 µM)
EC50 (Cytochrome P450 2D6): > 40 µM
EC50 (Cytochrome P450 1A2): > 40 µM
concentration at 6 h [14]: 17500 nM
EC50 (Hepatitis C virus [15]): 0.006 µM
AUC(0-t) at 6 h [16]: 11.2 µM·h
concentration at 6 h [17]: 14300 nM
AUC(0-t) at 6 h [18]: 4.93 µM·h
Compound: COc1ccc2c(c1)[C@@H]1C[C@]1(C(=O)N1C3CC1CN(C)C3)Cn1c-2c(C2CCCCC2)c2ccc(C(=O)NS(=O)(=O)N(C)C)cc21
EC50 [6]: 20 µM
EC50 (HepG2): 25 µM
EC50 [12]: 30 µM
CC50 [13]: 13 µM

EC50 (Hepatitis C virus [1]): 0.059 µM
concentration at 4 h [19]: 11 nM
Kp at 4 h [20]: > 200
concentration at 4 h [21]: 17 nM
Papp [5]: 25 ×10⁻⁶ cm/s
concentration at 4 h [22]: 8800 nM
AUC(0-t) at 4 h [23]: 0.041 µM·h
EC50 [7]: > 50 µM
Stability (Liver microsome [8]): 84%
Stability (Liver microsome [9]): 95%
EC50 (Hepatitis C virus [10]): 0.038 µM
solubility [11]: 57 µg/mL (≈ 93.9 µM)
concentration at 4 h [24]: 5000 nM
AUC(0-t) at 4 h [25]: 1.42 µM·h
EC50 (Hepatitis C virus [15]): 0.045 µM
clearance [26]: 96 mL/min/kg
Compound: COc1ccc2c(c1)C1CC1(C(=O)N1CC(O)C1)Cn1c-2c(C2CCCCC2)c2ccc(C(=O)NS(=O)(=O)N(C)C)cc21 (racemic)
CC50 [13]: > 10 µM
